Laboratory results: PMC8807600, “Catalytic trajectory of a dimeric nonribosomal peptide synthetase subunit with an inserted epimerase domain” (Nature Communications, 2022)

B1: PchE (dihydroaeruginoic acid synthetase, NRPS elongation module of the pyochelin pathway) (enzyme)
chain: MDLPPDSRTALRDWLTEQLADLLGEPLADVRALADDDDLLGCGLDSIRLMYLQERLRARGSTLDFAQLAQRPCLGAWLDLLACADRLSAPATVALPTAQDRDQPFELSSVQQAYWLGRGAGEVLGNVSCHAFLEFRTRDVDPQRLAAAAECVRQRHPMLRARFLDGRQQILPTPPLSCFDLQDWRTLQVDEAERDWQALRDWRAHECLAVERGQVFLLGLVRMPGGEDRLWLSLDLLAADVESLRLLLAELGVAYLAPERLAEPPALHFADYLAHRAAQRAEAAARARDYWLERLPRLPDAPALPLACAPESIRQPRTRRLAFQLSAGESRRLERLAAQHGVTLSSVFGCAFALVLARWSESAEFLLNVPLFDRHADDPRIGEVIADFTTLLLLECRMQAGVSFAEAVKSFQRNLHGAIDHAAFPALEVLREARRQGQPRSAPVVFASNLGEEGFVPAAFRDAFGDLHDMLSQTPQVWLDHQLYRVGDGILLAWDSVVGLFPEGLPETMFEAYVGLLQRLCDSAWGQPADLPLPWAQQARRALLNGQPACATARTLHRDFFLRAAEAPDADALLYRDQRVTRGELAERALRIAGGLREAGVRPGDAVEVSLPRGPQQVAAVFGVLAAGACYVPLDIDQPPARRRLIEEAAGVCLAITEEDDPQALPPRLDVQRLLRGPALAAPVPLAPQASAYVIYTSGSTGVPKGVEVSHAAAINTIDALLDLLRVNASDRLLAVSALDFDLSVFDLFGGLGAGASLVLPAQEQARDAAAWAEAIQRHAVSLWNSAPALLEMALSLPASQADYRSLRAVLLSGDWVALDLPGRLRPRCAEGCRLHVLGGATEAGIWSNLQSVDTVPPHWRSIPYGRPLPGQAYRVVDTHGRDVPDLVVGELWIGGASLARGYRNDPELSARRFVHDAQGRWYRTGDRGRYWGDGTLEFLGRVDQQVKVRGQRIELGEVEAALCAQAGVESACAAVLGGGVASLGAVLVPRLAPRAEGSMDLPAAQPFAGLAEAEAVLTREILGALLEAPLELDDGLRRRWLDWLADSAASALPSLDEALRRLGWQAAGLTAMGNALRGLLAGEQAPAALLLDPWLAPQAVAARLPDGREALARLLEALPTPAAGERLRVAVLDTRAGLWLDQGMASLLRPGLELTLFERSRVLLDAAATRLPERIVVQALDDGLLPAEHLGRYDRVISFAALHAYEASREGLALAAALLRPQGRLLLVDLLCESPLALLGAALLDDRPLRLAELPSLLADLAAAGLAPRCLWRSERIALVEALAPGLGLDAAALQAGLEQRLPQAMRPERLWCLPSLPLNGNGKVDRRRLAESMTRALGECRHEPSAEEPLEAHEQALAECWEAVLKRPVRRREASFFSLGGDSLLATRLLAGIRERFGVRLGMADFYRQPTLAGLARHLQVQTVEIEETQLEEGVL
modifications: phosphopantetheine (pPant) arms on the ArCP and PCP domains; salicyl-pPant or hydroxyphenylthiazolinyl-pPant seen in some conformations
notes: also called Strep II-tagged PchE; source: E. coli BAP1, purified (Strep-Tactin resin, Superose 6 Increase size exclusion)

Key:
PchD = PchD (Pseudomonas aeruginosa, UniProt Q9HWG3); conditions: 10 uM PchE, 10 uM PchD, 10 uM SrfD, 5 mM cysteine, 1 mM salicylate, 5 mM ATP, 10 mM MgCl2, 50 mM Tris pH 7.9, 25 C, 2.5 h; PchD loads salicylate onto ArCP of PchE (coupled read-out)
Sequence of PchD (Q9HWG3 whole entry): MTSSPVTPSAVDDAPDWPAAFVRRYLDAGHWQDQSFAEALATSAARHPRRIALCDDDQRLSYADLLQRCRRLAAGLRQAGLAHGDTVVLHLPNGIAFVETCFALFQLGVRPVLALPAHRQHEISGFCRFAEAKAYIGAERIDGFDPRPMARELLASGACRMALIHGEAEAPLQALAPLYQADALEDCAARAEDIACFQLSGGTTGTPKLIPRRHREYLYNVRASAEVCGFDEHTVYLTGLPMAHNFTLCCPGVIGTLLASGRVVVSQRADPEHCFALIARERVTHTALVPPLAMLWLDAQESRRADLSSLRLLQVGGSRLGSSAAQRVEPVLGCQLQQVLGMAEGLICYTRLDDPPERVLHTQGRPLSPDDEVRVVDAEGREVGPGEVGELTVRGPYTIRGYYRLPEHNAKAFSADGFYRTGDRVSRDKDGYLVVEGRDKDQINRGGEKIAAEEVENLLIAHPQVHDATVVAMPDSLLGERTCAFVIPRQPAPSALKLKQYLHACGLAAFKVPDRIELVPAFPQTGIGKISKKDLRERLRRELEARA

[1] = molecular target: the molecule itself; experiment: cryo-EM structure; PchE reacted with PchD (0.5:1), salicylate, cysteine, ATP, MgCl2, then purified on Superose 6 Increase in 50 mM Tricine pH 8.0, 1 mM MgCl2; ~4 mg/mL with 1 mM cysteine and ATP; three conformations at 2.97, 3.78 and 3.47 Å

Molecule | in vitro reconstitution, HPLC and LC-MS of products (PchD) | stoichiometry N [1]
O=C(O)c1ccccc1O [salicylate] | PchD is responsible for loading salicylate onto the ArCP domain of PchE | –
B1 | – | 2
